Measured values taken from patent publication US20190161516A1, “PROTEASOME INHIBITORS” (University of Kentucky Research Foundation, priority 2017, published 2019).
pIC50: −log10 of the molar value. Read-outs that look alike come from different tables or passages of the source.

How the values were obtained:
LMP2/β1i = LMP2/β1i (Homo sapiens, UniProt P28065+P40306); test: Proteasome inhibitory activity, subunit-specific cell lysate IC50, LMP2; assay type: biochemical; design: Subunit-Specific Cell lysate IC50 (μM); endogenous in cells
[1] = tested on: Chymotrypsin-like activity (β5/β5i); test: Proteasome inhibitory activity, subunit-specific cell lysate IC50, chymotrypsin-like activity; assay type: biochemical
BV-2 cells = test: LPS-induced IL-6 production in BV-2 microglial cell line; assay type: cell-based; details: FIG. 14
Text: To test this, we used BV-2 cell line, a microglial cell line, known to upregulate cytokines in response to LPS treatment. […] We suspect these contradictory results are due to cell type-specific role of LMP2, indicating a distinct role of LMP2 in microglia inflammatory response.

[2] = tested on: human peripheral blood mononuclear cells (PBMCs); details: previous studies; cited from earlier work
[3] = read-out: Subunit-Specific Cell lysate IC50, LMP2 (β1i)
[4] = Subunit-Specific Cell lysate IC50, LMP2 (β1i)

pIC50 (LMP2/β1i; [3])	pIC50 [1]	SMILES	pIC50 (LMP2/β1i; [4])	IL-6 production induced by LPS (BV-2 cells)	LPS-induced cytokine production including IL-6 [2]
5.92	< 5.00	CC(C)C[C@H](NC(=O)[C@H](Cc1ccccc1)NC(=O)[C@@H]1CCCN1C(=O)CN1CCOCC1)C(=O)[C@@]1(C)CO1 [Analogue 1]	–	–	–
6.00	< 5.00	CC(C)C[C@H](NC(=O)[C@H](Cc1ccccc1)NC(=O)[C@@H]1CCCN1C(=O)c1cccc(O)n1)C(=O)[C@@]1(C)CO1 [Analogue 2]	–	–	–
6.00	< 5.00	CC(C)C[C@H](NC(=O)[C@H](Cc1ccccc1)NC(=O)[C@@H]1CCCN1C(=O)CN1CCOCC1=O)C(=O)[C@@]1(C)CO1 [Analogue 3]	–	–	–
6.19	< 5.00	CC(=O)NCC(=O)N1CCC[C@H]1C(=O)N[C@@H](Cc1ccc(-c2ccccc2)cc1)C(=O)N[C@@H](CC(C)C)C(=O)[C@@]1(CO)CO1 [Analogue 4]	–	–	–
5.66	5.15	CC(=O)NCC(=O)N1CCC[C@H]1C(=O)N[C@@H](Cc1ccc2ccccc2c1)C(=O)N[C@@H](CC(C)C)C(=O)[C@@]1(CO)CO1 [Analogue 6]	–	–	–
7.52	< 5.00	CC(=O)NCC(=O)N1CCC[C@H]1C(=O)N[C@@H](Cc1ccc2ccccc2c1)C(=O)N[C@@H](CC(C)C)C(=O)[C@@]1(C)CO1 [Analogue 7]	–	–	–
7.70	5.30	CC(=O)NCC(=O)N1CCC[C@H]1C(=O)N[C@@H](Cc1ccc(-c2ccccc2)cc1)C(=O)N[C@@H](CC(C)C)C(=O)[C@@]1(C)CO1 [Analogue 8]	–	–	–
6.89	< 5.00	CCc1ccc(C[C@H](NC(=O)[C@@H]2CCCN2C(=O)CNC(C)=O)C(=O)N[C@@H](CC(C)C)C(=O)[C@@]2(C)CO2)cc1 [Analogue 9]	–	–	–
7.52	< 5.00	CC(=O)NCC(=O)N1CCC[C@H]1C(=O)N[C@@H](Cc1cccc2ccccc12)C(=O)N[C@@H](CC(C)C)C(=O)[C@@]1(C)CO1 [Analogue 10]	–	–	–
7.22	< 5.00	CC(=O)NCC(=O)N1CCC[C@H]1C(=O)N[C@@H](Cc1ccccc1)C(=O)N[C@@H](CC(C)C)C(=O)[C@@]1(CO)CO1 [Analogue 11]	–	–	–
7.15	< 5.00	CC(=O)NCC(=O)N1CC(F)(F)C[C@H]1C(=O)N[C@@H](Cc1ccccc1)C(=O)N[C@@H](CC(C)C)C(=O)[C@@]1(C)CO1 [Analogue 12]	–	–	–
7.00	< 5.00	Cc1ncc(C(=O)NCC(=O)N2CCC[C@H]2C(=O)N[C@@H](Cc2ccccc2)C(=O)N[C@@H](CC(C)C)C(=O)[C@@]2(C)CO2)s1 [Analogue 15]	–	–	–
6.85	< 5.00	CC(C)C[C@H](NC(=O)[C@H](Cc1ccccc1)NC(=O)[C@@H]1CCCN1C(=O)CNC(=O)c1cccc(O)n1)C(=O)[C@@]1(C)CO1 [Analogue 17]	–	–	–
7.00	–	CC(C)C[C@H](NC(=O)[C@H](CCc1ccccc1)NC(=O)[C@@H]1CCCN1C(=O)CNC(=O)c1cnccn1)C(=O)[C@@]1(C)CO1 [Analogue 20]	–	–	–
7.05	5.30	CC(C)C[C@H](NC(=O)[C@H](Cc1ccc(-c2ccccc2)cc1)NC(=O)[C@@H]1CCCN1C(=O)CNC(=O)c1cnccn1)C(=O)[C@@]1(C)CO1 [Analogue 22]	–	–	–
7.22	–	CC(C)C[C@H](NC(=O)[C@H](Cc1ccc2ccccc2c1)NC(=O)[C@@H]1CCCN1C(=O)CNC(=O)c1cnccn1)C(=O)[C@@]1(C)CO1 [Analogue 23]	–	–	–
6.89	–	Cc1ncc(C(=O)NCC(=O)N2CCC[C@H]2C(=O)N[C@@H](Cc2ccc(-c3ccccc3)cc2)C(=O)N[C@@H](CC(C)C)C(=O)[C@@]2(C)CO2)s1 [Analogue 24]	–	–	–
6.89	< 5.00	CC(C)C[C@H](NC(=O)[C@H](Cc1ccccc1)NC(=O)[C@@H]1CCCN1C(=O)CNC(=O)C(F)(F)F)C(=O)[C@@]1(C)CO1 [Analogue 25]	–	–	–
7.05	–	Cc1ncc(C(=O)NCC(=O)N2CCC[C@H]2C(=O)N[C@@H](Cc2ccc3ccccc3c2)C(=O)N[C@@H](CC(C)C)C(=O)[C@@]2(C)CO2)s1 [Analogue 26]	–	–	–
6.96	< 5.00	CC(C)C[C@H](NC(=O)[C@H](Cc1ccccc1)NC(=O)[C@@H]1CCCN1C(=O)CNC(=O)S(C)(=O)=O)C(=O)[C@@]1(C)CO1 [Analogue 27]	–	–	–
7.05	< 5.00	CC(=O)NCC(=O)N1CCC[C@H]1C(=O)N[C@@H](Cc1ccc(NC(=O)CN2CCOCC2)cc1)C(=O)N[C@@H](CC(C)C)C(=O)[C@@]1(C)CO1 [Analogue 29]	–	–	–
6.92	–	CC(=O)NCC(=O)N1CCC[C@H]1C(=O)N[C@@H](Cc1ccncc1)C(=O)N[C@@H](CC(C)C)C(=O)[C@@]1(C)CO1 [Analogue 30]	–	–	–
–	–	COc1ccc(C[C@H](NC(=O)[C@H](C)NC(=O)CN2CCOCC2)C(=O)N[C@@H](Cc2ccccc2)C(=O)[C@@]2(C)CO2)cc1 [ONX-0914]	–	less effective in blocking IL-6 production	almost completely blocked

SMILES	pIC50 (LMP2/β1i; [3])	pIC50 [1]	pIC50 (LMP2/β1i; [4])	IL-6 production induced by LPS (BV-2 cells)	LPS-induced cytokine production including IL-6 [2]
CC(=O)NCC(=O)N1CCC[C@H]1C(=O)N[C@@H](Cc1ccc2ccccc2c1)C(=O)N[C@@H](CC(C)C)C(=O)[C@@]1(CO[Si](c2ccccc2)(c2ccccc2)C(C)(C)C)CO1 [Analogue 5]	–	< 5.00	< 5.00	–	–
CC(=O)NCC(=O)N1CCC[C@H]1C(=O)N[C@@H](CCc1ccccc1)C(=O)N[C@@H](CC(C)C)C(=O)[C@@]1(C)CO1 [Analogue 13]	7.22	< 5.00	–	–	–
CC(=O)NCC(=O)N1CCCCC1C(=O)N[C@@H](Cc1ccccc1)C(=O)N[C@@H](CC(C)C)C(=O)[C@@]1(C)CO1 (stereo partly shown) [Analogue 14]	6.92	6.00	–	–	–
CC(=O)NCC(=O)N1CCC[C@H]1C(=O)N[C@@H](Cc1ccc(NC(=O)c2ccccc2)cc1)C(=O)N[C@@H](CC(C)C)C(=O)[C@@]1(C)CO1 [Analogue 18]	–	5.30	7.15	–	–
Cc1ncc(C(=O)NCC(=O)N2CCC[C@H]2C(=O)N[C@@H](CCc2ccccc2)C(=O)N[C@@H](CC(C)C)C(=O)[C@@]2(C)CO2)s1 [Analogue 19]	6.74	< 5.00	–	–	–
Cc1cc(C(=O)NCC(=O)N2CCC[C@H]2C(=O)N[C@@H](CCc2ccccc2)C(=O)N[C@@H](CC(C)C)C(=O)[C@@]2(C)CO2)no1 [Analogue 21]	6.89	< 5.00	–	–	–
CC(=O)NCC(=O)N1CCC[C@H]1C(=O)N[C@@H](Cc1ccc(NC(=O)c2cnccn2)cc1)C(=O)N[C@@H](CC(C)C)C(=O)[C@@]1(C)CO1 [Analogue 28]	–	< 5.00	7.52	–	–
